Common to all, as to test: In vitro susceptibility (broth microdilution MIC, MBC by spiral-plating)
One assay deals with S. mutans ATCC 25175. It counts as cell-based, Streptococcus mutans. The source says: (§1) Strains used in Examples 3-6 included ATCC and laboratory strains of different oral bacteria. These included: Actinomyces naeslundii strain T14V-J1, Actinomyces israelii ATCC 10049, Streptococcus mutans strains LT 11 and ATCC 25175, Streptococcus sobrinus ATCC 33478, Streptococcus gordonii strains DL1 and ATCC 51656, Streptococcus sanguis strains SK36 and ATCC 10556, Streptococcus salivarius ATCC 9222, Streptococcus oralis strains 34 and ATCC 35037, Lactobacillus salivarius ATCC 29602, Lactobacillus acidophilus ATCC 4357, and Actinobacillus actinomycetemcomitans ATCC 43718. S. mutans strain LT 11 was kindly provided by Lin Tao, University of Illinois at Chicago, Ill. S. gordonii DLI, S. sanguis SK36, and S. oralis 34 were provided by John Cisar, National Institute of Dental and Craniofacial Research, NIH, Bethesda, Md.
(§2) Todd-Hewitt broth (THB), brain heart infusion (BHI) broth, Todd-Hewitt agar (THA), trypticase soy agar (TSA), lactobacilli MRS (MRS) broth, Actinomyces broth and Mueller-Hinton broth (MHB) were purchased from Becton Dickinson. Blood agar plates (BAP) were prepared by supplementing TSA with 5% sheep blood (PML Microbiologicals). All cultures, except for Actinobacillus actinomycetemcomitans, S. mitis and Actinomyces israelii, were grown at 37° C. in room air. Actinobacillus actinomycetemcomitans cultures were grown on BAP or in MHB supplemented with 15 μg haemin ml^−1 (Sigma), 15 μg β-nicotinamide adenine dinucleotide (NAD) ml^−1 (Sigma) and 5% yeast extract (Becton Dickinson) at 37° C. in 5% CO2. S. mitis was grown on BAP or in BHI broth at 37° C. in 5% CO2. […]
(§3) MICs were determined as described by Fuchs et al. (1998) with a slight modification. […] The MIC was defined as the lowest concentration of the peptide that prevented visible turbidity, as measured at 600 nm by using an ELISA reader (Titertek Multiskan MCC/340). […] Minimum bactericidal concentrations (MBCs) were determined by spiral-plating (Spiral Plater Autoplate 4000; Spiral Biotech) 50 μl from each clear well (≧MIC) onto BAP.

The test system of a further assay is S. mitis ATCC. The format is cell-based. To be noted: 24-48 h.
Source text: as §1
(§4) Todd-Hewitt broth (THB), brain heart infusion (BHI) broth, Todd-Hewitt agar (THA), trypticase soy agar (TSA), lactobacilli MRS (MRS) broth, Actinomyces broth and Mueller-Hinton broth (MHB) were purchased from Becton Dickinson. Blood agar plates (BAP) were prepared by supplementing TSA with 5% sheep blood (PML Microbiologicals). All cultures, except for Actinobacillus actinomycetemcomitans, S. mitis and Actinomyces israelii, were grown at 37° C. in room air. Actinobacillus actinomycetemcomitans cultures were grown on BAP or in MHB supplemented with 15 μg haemin ml^−1 (Sigma), 15 μg β-nicotinamide adenine dinucleotide (NAD) ml^−1 (Sigma) and 5% yeast extract (Becton Dickinson) at 37° C. in 5% CO2. S. mitis was grown on BAP or in BHI broth at 37° C. in 5% CO2. Actinomyces israeilli was grown anaerobically in an anaerobic chamber (Coy Laboratory Products) in a 5% CO2/10% H2/85% N2 atmosphere.
(§5) MICs were determined as described by Fuchs et al. (1998) with a slight modification. Procedures were based on the National Committee for Clinical Laboratory Standards broth microdilution method. MHB was used as the main assay medium for most of the tested organisms. Freshly grown cultures at exponential phase were used as the inoculum. Bacteria were centrifuged at 4000 r.p.m. for 15 min at 4° C., suspended in 2× concentrated medium and adjusted to 4×106 c.f.u ml−1 in 2× concentrated medium. Aqueous peptide solution (100 μl) was added to each well of a 96-well, flat-bottomed plate (Becton Dickinson). The peptide solution was serially diluted (twofold) with sterile distilled water in the wells, with final peptide concentrations ranging from 3.13 to 200 μg ml−1. After dispensing 100 μl aliquots of bacterial suspension into the wells, the 96-well plates were incubated at 37° C. for 24-48 h in room air, CO2 or anaerobically. The MIC was defined as the lowest concentration of the peptide that prevented visible turbidity, as measured at 600 nm by using an ELISA reader (Titertek Multiskan MCC/340). […] Minimum bactericidal concentrations (MBCs) were determined by spiral-plating (Spiral Plater Autoplate 4000; Spiral Biotech) 50 μl from each clear well (≧MIC) onto BAP.

For assay [1], the system named is Actinomyces naeslundii T14V-J1. It counts as cell-based. The settings on record: 24-48 h.
Source text: as §1, §4, §5

The test system of assay [2] is Actinomyces israelii ATCC 10049. The format is cell-based. The settings on record: 24-48 h.
Source text: as §1, §4, §5

A further assay deals with S. sobrinus ATCC 33478. The format is cell-based, Streptococcus sobrinus.
Source text: as §1, §2, §3

A further assay deals with S. oralis ATCC 35037. It counts as cell-based, Streptococcus oralis. To be noted: 24-48 h.
Source text: as §1, with “Md. […]” for “Md.”
as §3

The next assay relates to S. gordonii ATCC 51656. The format is cell-based, Streptococcus gordonii. To be noted: 24-48 h.
Source text: as §1, §4
as §5, with “The peptide solution was serially diluted (twofold) with sterile distilled water in the wells, with final peptide concentrations ranging from 3.13 to 200 μg ml−1. After dispensing 100 μl aliquots of bacterial suspension into the wells, the 96-well plates were incubated at 37° C. for 24-48 h in room air, CO2 or anaerobically.” left out

The subject of a further assay is S. gordonii DL1. It counts as cell-based, Streptococcus gordonii. To be noted: 24-48 h.
Source text: as §1, §4
as §5, with “The peptide solution was serially diluted (twofold) with sterile distilled water in the wells, with final peptide concentrations ranging from 3.13 to 200 μg ml−1. After dispensing 100 μl aliquots of bacterial suspension into the wells, the 96-well plates were incubated at 37° C. for 24-48 h in room air, CO2 or anaerobically.” left out

The mark [3] stands for this setting: MHB, 4 × 10^6 cells ml^−1, 37° C., 24-48 h.
The mark [4] stands for this setting: clear MIC wells plated on BAP, 24-48 h.
Where [5] appears, read: MHB, 4 × 10^6 cells ml^−1, 37° C.

Ends that are not written are not given here.

Turning to “KKVVFKVKFK-NH2 [KSL, lys-lys-val-val-phe-lys-val-lys-phe-lys]”, the “concentration inhibiting growth effectively” value with S. mutans ATCC 25175 and in the assay on S. sobrinus ATCC 33478 was < 25 µg/mL in each case. Moreover, the MIC with S. mutans ATCC 25175 (setting [3]) was determined as 6.25 µg/mL; in the assay with S. mitis ATCC (BHI, 5% CO2, 4 × 10^6 cells ml^−1, 37° C.) it was 25 µg/mL; in assay [1] (MHB or modified broth, 4 × 10^6 cells ml^−1, 37° C.) it was 3.13 µg/mL; in assay [2] (20% Actinomyces broth, anaerobic, 4 × 10^6 cells ml^−1, 37° C.), 6.25 µg/mL; in the assay with S. sobrinus ATCC 33478 (setting [3]), 25 µg/mL; in the assay with S. oralis ATCC 35037 (setting [5]), 100 µg/mL. In addition, the MIC in the assay on S. gordonii ATCC 51656 (setting [5]) and with S. gordonii DL1 (setting [5]) was 50 µg/mL in each case. Besides, the MBC stood at 12.5 µg/mL in the assay with S. mutans ATCC 25175 (setting [4]); 50 µg/mL with S. mitis ATCC (clear MIC wells plated on BAP); 12.5 µg/mL in assay [1] (clear MIC wells plated on BAP); 12.5 µg/mL in assay [2] (clear MIC wells plated on BAP); 50 µg/mL in the assay on S. sobrinus ATCC 33478 (setting [4]); 200 µg/mL in the assay with S. oralis ATCC 35037 (clear MIC wells plated on BAP). Moreover, the MBC against S. gordonii ATCC 51656 (clear MIC wells plated on BAP) and in the assay on S. gordonii DL1 (clear MIC wells plated on BAP) was 100 µg/mL in each case.

These data come from patent US7494980B2, “Antimicrobial peptide and methods of use thereof” (The United States of America as represented by the …, priority 2003, dated 2009).
